Reference: publication PMC8747639, “Novel Angiotensin-Converting Enzyme Inhibitory Peptides Identified from Walnut Glutelin-1 Hydrolysates: Molecular Interaction, Stability, and Antihypertensive Effects” (Nutrients, 2021)
No end group written: not given here.

Legend:
[1] = tested on: spontaneously hypertensive rats (SHRs); assay: BP measurement after single oral administration in SHR (tail-cuff); format: in vivo, rat; details: single intragastric administration, 0-8 h
Method: (§1) Thirty 10-week-old male spontaneously hypertensive rats (SHRs) and five normal male rats of the same age were used for the experiment. The rats were placed at 25 °C ± 1 °C, relative humidity of 45–55% and a light/dark cycle for 12 h. SHRs were randomly divided into 6 groups after one week of adaptation, while rats in the normal group (NG) were used as controls. The administration was continued for 28 days.
(§2) Rats in the normal and SHR groups were given 1.0 mL of 0.9% saline per day, while the positive control group was given captopril (10 mg/kg body weight) per day. The ACE inhibitory peptides treatment groups’ low and high doses were fed orally with 5 and 15 mg/kg (based on their body weight) by dissolving the peptides in 1.0 mL of 0.9% normal saline. The rats’ BP was measured by the tail-cuff method. The systolic blood pressure (SBP), diastolic blood pressure (DBP), and heart rate of all rats were measured after a single oral administration (0–8 h) and weekly (0–4 weeks). All measurements were repeated at least three times so the average value could be calculated.

[2] = tested on: spontaneously hypertensive rats (SHRs); assay: BP measurement during four weeks of oral administration in SHR (tail-cuff); format: in vivo, rat; details: daily oral; for SBP compared with the SHRs group after one week of oral administration: peptides 5 and 15 mg/kg, p < 0.01
Method: as §1, §2

[3] = tested on: serum ET-1, NO, ACE, Ang II, AGT, ALD; assay: Serum ET-1, NO, ACE, Ang II, AGT and ALD in SHR (ELISA / NO kit); format: in vivo, rat; details: 28 days oral administration; for serum ACE level of the SHR control group compared with the treated group / serum AGT level of the SHR control group compared with the treated group / serum ALD level of the SHR control group compared with the treated group / serum AngII level of the SHR control group compared with the treated group: p < 0.05
Text: (§3) The Grain, Oil and Protein Engineering Laboratory of Shaanxi Normal University (Xi’an, China) provided the defatted walnut meal. ACE (from rabbit lung) and hippuryl-histidyl-leucine (HHL) were purchased from Sigma Co., St. Louis, MO, USA. Pepsin (3 × 10^3 U/g) was obtained from Solarbio Science & Technology, Co., Ltd. (Beijing, China). High-performance liquid chromatography grade acetonitrile and trifluoroacetic acid were purchased from Fischer Scientific Co. (Waltham, MA, USA). The enzyme-linked immunosorbent assay kit for the detection of ACE, angiotensinogen (AGT), aldosterone (ALD), and Endothelin-1(ET-1) was purchased from Jiangsu Jingmei Biotechnology Co., Ltd. (YanCheng, China). The enzyme-linked immunosorbent assay kit for the detection of Ang II was obtained from Shanghai Kexing Biotechnology Co., Ltd., (Shanghai, China). and the nitric oxide (NO) detection kit was a product of Nanjing Jiancheng Institute of Biological Engineering (Nanjing, China), and other chemical reagents used in the experiment were of analytical grade.
The upper serum samples were obtained by centrifugation at 3000× g at 4 °C for 10 min after the blood was taken from the abdominal aorta of all rats. The samples were stored at −20 °C, and the serum expression was detected using the ELISA kit (double antibody sandwich enzyme-linked immunosorbent assay).

[4] = tested on: pepsin and trypsin; assay: GI digestion stability of the synthesized peptides (pepsin, trypsin), read out as ACE inhibitory activity; format: in vitro ADME; details: pepsin 1 mg/mL pH 2.0 37 °C 3 h, or trypsin 1.0 mg/mL pH 8.0 37 °C 4 h
Method: We conducted a GI digestion stability analysis of the synthesized peptides according to the method proposed by Khueychai et al. (2018) with slight modifications. Briefly, the peptide solution was incubated with 1 mg/mL of pepsin solution (0.1 M HCl, pH 2.0) at 37 °C for 3 h. Subsequently, the pH value of the mixed solution was adjusted to 8.0 with 1.0 M NaOH, and 1.0 mg/mL of trypsin added and incubated at 37 °C for 4 h. Finally, the ACE inhibitory activity of the reaction solution could be determined after boiling for 10 min, cooling to room temperature, and centrifuging for 15 min at 10,000× g.

[5] = Temperature, pH, metal ion, sugar and salt treatment stability of the synthesized peptides, read out as ACE inhibition rate; format: physicochemical; details: 1.0 mg/mL peptide
Method: The effect of temperature, pH, metal ion, sugar, and salt treatments on the stabilities of two synthesized peptides, were determined by incubating 1.0 mg/mL of VERGRRITSV and FVIEPNITPA at 20 °C, 40 °C, 60 °C, 80 °C, and 100 °C for 2 h; 37 °C for 2 h at pH 2, 4, 6, 8, and 10; with 100 μg/mL of KCl, CaCl2, ZnSO4, MgSO4, and FeSO4 solution at 37 °C for 2 h; with glucose solutions of 2%, 4%, 8%, and 12% at 37 °C for 30 min; with NaCl solutions of 2%, 4%, 8%, and 12% at 37 °C for 30 min, respectively. The ACE inhibition rate was measured immediately after incubation.

[6] = molecular target: T1, ACE (from rabbit lung) (Oryctolagus cuniculus, UniProt P12822); assay: ACE inhibitory activity (HHL substrate, absorbance); format: biochemical
T1 construct: ACE (from rabbit lung) and hippuryl-histidyl-leucine (HHL) were purchased from Sigma Co; purchased Sigma Co., St. Louis, MO, USA; host or cells: rabbit lung (tissue-derived)
T1 sequence (P12822 34-1310): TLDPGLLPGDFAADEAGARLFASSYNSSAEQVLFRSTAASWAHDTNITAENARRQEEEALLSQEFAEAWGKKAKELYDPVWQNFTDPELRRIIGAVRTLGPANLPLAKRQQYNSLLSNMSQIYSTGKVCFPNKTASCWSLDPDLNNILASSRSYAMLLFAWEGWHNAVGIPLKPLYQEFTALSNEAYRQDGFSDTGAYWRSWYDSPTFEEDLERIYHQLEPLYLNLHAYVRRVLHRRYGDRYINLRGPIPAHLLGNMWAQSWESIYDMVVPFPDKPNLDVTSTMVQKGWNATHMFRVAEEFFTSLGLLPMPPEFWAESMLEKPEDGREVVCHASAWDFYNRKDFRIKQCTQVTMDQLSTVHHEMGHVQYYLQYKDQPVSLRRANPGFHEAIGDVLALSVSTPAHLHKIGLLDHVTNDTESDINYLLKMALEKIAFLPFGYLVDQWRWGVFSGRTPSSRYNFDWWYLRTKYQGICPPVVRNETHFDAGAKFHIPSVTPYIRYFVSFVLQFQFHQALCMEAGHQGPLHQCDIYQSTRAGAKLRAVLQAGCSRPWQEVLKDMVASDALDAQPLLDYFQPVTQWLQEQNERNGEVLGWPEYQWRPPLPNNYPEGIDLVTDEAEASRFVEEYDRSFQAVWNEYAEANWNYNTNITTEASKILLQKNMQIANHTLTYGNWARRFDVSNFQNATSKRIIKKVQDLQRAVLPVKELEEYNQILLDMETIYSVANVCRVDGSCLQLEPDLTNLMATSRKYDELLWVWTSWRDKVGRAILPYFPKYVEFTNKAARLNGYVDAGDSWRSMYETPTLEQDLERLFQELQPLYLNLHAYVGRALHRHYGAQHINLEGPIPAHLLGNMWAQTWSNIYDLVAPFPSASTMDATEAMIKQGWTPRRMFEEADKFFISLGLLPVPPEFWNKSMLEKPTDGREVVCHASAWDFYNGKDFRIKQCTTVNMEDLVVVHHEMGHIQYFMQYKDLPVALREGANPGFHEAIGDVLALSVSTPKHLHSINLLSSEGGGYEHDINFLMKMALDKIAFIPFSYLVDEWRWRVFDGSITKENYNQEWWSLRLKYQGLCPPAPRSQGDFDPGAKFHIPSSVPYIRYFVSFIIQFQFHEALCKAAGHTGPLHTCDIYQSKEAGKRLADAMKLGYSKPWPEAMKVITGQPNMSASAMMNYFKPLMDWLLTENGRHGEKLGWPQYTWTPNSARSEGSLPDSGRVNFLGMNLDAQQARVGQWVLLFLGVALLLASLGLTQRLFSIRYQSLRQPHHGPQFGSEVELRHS
Text: as §3
Following a previous method reported by Zheng et al. (2017), we could determine the ACE inhibitory activity of glutelin-1 hydrolysate, separated fractions, active peptides, and all the other samples with 1.0 mg/mL Captopril as a positive control. The IC50 value (the concentrationof the inhibitory peptide (μM) had to inhibit 50% of the ACE activity) was calculated by linear regression of the curve.
The following formula was used to calculate the ACE inhibition rate (%): ACE inhibition rate(%)=(1-As/Ac)×100 where Ac represents ACE solution’s absorbance without an inhibitor and As represents the mixture containing samples.

[7] = captopril 10 mg/kg, peptides low dose 5 mg/kg, decline reached a maximum in the second week
[8] = NaCl solutions 2-12%, 37 °C for 30 min, read-out ACE inhibition rate

In the case of `C[C@H](CS)C(=O)N1CCC[C@H]1C(=O)O` [captopril, reference compound], the “maximal reduction in SBP” value ([1]; captopril 10 mg/kg) is reported as 29.5 mmHg, the “SBP compared with the SHRs group after one week of oral administration” value ([2]; captopril 10 mg/kg) is reported as “significantly lower” and the “DBP course during continuous administration” value [2, 7] is reported as “began to decrease after one week of continuous administration”. The “serum ACE level of the SHR control group compared with the treated group” value ([3]; ELISA) was “significantly higher”, the “serum AGT level of the SHR control group compared with the treated group” value ([3]; ELISA) was “significantly higher” and the “serum ALD level of the SHR control group compared with the treated group” value ([3]; ELISA) was “significantly higher”. The “serum AngII level of the SHR control group compared with the treated group” value ([3]; ELISA) was “significantly higher”.

For “FVIEPNITPA [FVIEPNITPA, Phe-Val-Ile-Glu-Pro-Asn-Ile-Thr-Pro-Ala]”, the “maximal reduction in SBP” value ([1]; high dose 15 mg/kg) was 30.4 mmHg, the “maximal reduction in SBP” value ([1]; low dose 5 mg/kg) was 23.0 mmHg and the “ACE inhibitory activity under pepsin or trypsin digestion” value [4] was “could still maintain high ACE inhibitory activity”. The “stability of ACE inhibitory activity with metal ions K+, Ca2+ and Mg2+” value ([5]; 100 μg/mL KCl, CaCl2, MgSO4, 37 °C for 2 h, read-out ACE inhibition rate) was “showed stability”, the “ACE inhibitory activity after temperature treatment” value ([5]; 20 °C-60 °C for 2 h, read-out ACE inhibition rate) was “did not change much” and the “effect of change of pH value on ACE inhibitory activity” value ([5]; 37 °C for 2 h at pH 2, 4, 6, 8 and 10, read-out ACE inhibition rate) was “no significant effect”. For the same molecule, the “ACE inhibition rate after temperature treatment” value ([5]; 80 °C for 2 h) was “above 80%”, the “ACE inhibition rate after temperature treatment” value ([5]; 100 °C for 2 h) was “about 70%” and the “stability of ACE inhibitory activity under high-concentration salt conditions” value [5, 8] was “less stable”. The “stability of ACE inhibitory activity under low-concentration salt conditions” value [5, 8] was “good stability”, the “stability of ACE inhibitory activity at low glucose concentration” value ([5]; glucose solutions 2-12%, 37 °C for 30 min, low concentrations, read-out ACE inhibition rate) was “showed stability” and the IC50 ([6]; calculated by linear regression of the curve, read-out: IC50 on angiotensin converting enzyme (ACE)) was 6.36 µM. The “ACE inhibitory activity compared among fractions or with the glutelin-1 hydrolysate (in words)” value ([6]; fractions from Sephadex G-15 (1.0 mg/mL) or RP-HPLC, control glutelin-1 hydrolysate before separation) was “highest ACE inhibitory activity”, the “SBP compared with the SHRs group after one week of oral administration” value ([2]; captopril 10 mg/kg) was “significantly lower” and the “DBP course during continuous administration” value [2, 7] was “began to decrease after one week of continuous administration”. The “DBP course during continuous administration” value ([2]; high dose 15 mg/kg) was “began to decrease in the second week after administration”, the “serum ET-1 levels” value ([3]; ELISA, SHR control significantly higher than the other groups (p < 0.01)) was “low ET-1 levels” and the “serum ACE level of the SHR control group compared with the treated group” value ([3]; ELISA) was “significantly higher”. The “serum AGT level of the SHR control group compared with the treated group” value ([3]; ELISA) was “significantly higher”, the “serum ALD level of the SHR control group compared with the treated group” value ([3]; ELISA) was “significantly higher” and the “serum AngII level of the SHR control group compared with the treated group” value ([3]; ELISA) was “significantly higher”. The “serum NO content” value ([3]; NO detection kit, SHR control significantly lower than treated groups (p < 0.05)) was “equivalent to that of the captopril group”.
